In ChEMBL document CHEMBL1275575, “Susceptibility of Mycobacterium bovis BCG vaccine strains to antituberculous antibiotics” (Antimicrob Agents Chemother, 2009):
In brackets after ≈: the same amount, converted by molar mass.

Tests used:
Assay type in all cases: functional
[1] = system: Mycobacterium tuberculosis variant bovis; assay: Antibacterial activity against Mycobacterium bovis BCG-Connaught
[2] = system: Mycobacterium tuberculosis variant bovis; assay: Antibacterial activity against Mycobacterium bovis BCG-Pasteur
[3] = system: Mycobacterium tuberculosis variant bovis; assay: Antibacterial activity against Mycobacterium bovis BCG-Moreau
[4] = system: Mycobacterium tuberculosis variant bovis; assay: Antibacterial activity against Mycobacterium bovis BCG-Glaxo
[5] = system: Mycobacterium tuberculosis variant bovis; assay: Antibacterial activity against Mycobacterium bovis BCG-Denmark
[6] = system: Mycobacterium tuberculosis variant bovis; assay: Antibacterial activity against Mycobacterium bovis BCG-japan
[7] = system: Mycobacterium tuberculosis variant bovis; assay: Antibacterial activity against Mycobacterium bovis BCG-Russia
[8] = system: Mycobacterium tuberculosis variant bovis; assay: Antibacterial activity against Mycobacterium bovis BCG-Connaught by Wayne's indirect method

| SMILES | MIC [1] [µg/mL] | MIC [2] [µg/mL] | MIC [3] [µg/mL] | MIC [4] [µg/mL] | MIC [5] [µg/mL] | MIC [6] [µg/mL] | MIC [7] [µg/mL] | MIC [8] [µg/mL] |
| --- | --- | --- | --- | --- | --- | --- | --- | --- |
| NCC[C@H](O)C(=O)N[C@@H]1C[C@H](N)[C@@H](O[C@H]2O[C@H](CN)[C@@H](O)[C@H](O)[C@H]2O)[C@H](O)[C@H]1O[C@H]1O[C@H](CO)[C@@H](O)[C@H](N)[C@H]1O [AMIKACIN] | 0.125 (≈ 0.213 µM) |  |  |  |  |  |  |  |
| CC[C@H]1OC(=O)[C@H](C)[C@@H](O[C@H]2C[C@@](C)(OC)[C@@H](O)[C@H](C)O2)[C@H](C)[C@@H](O[C@@H]2O[C@H](C)C[C@H](N(C)C)[C@H]2O)[C@](C)(O)C[C@@H](C)CN(C)[C@H](C)[C@@H](O)[C@]1(C)O [AZITHROMYCIN] | 16 (≈ 21.4 µM) | 1 (≈ 1.34 µM) |  |  |  |  |  |  |
| O=C(O)c1cn(C2CC2)c2cc(N3CCNCC3)c(F)cc2c1=O [CIPROFLOXACIN] | 0.125 (≈ 0.377 µM) |  |  |  |  |  |  |  |
| CC[C@H]1OC(=O)[C@H](C)[C@@H](O[C@H]2C[C@@](C)(OC)[C@@H](O)[C@H](C)O2)[C@H](C)[C@@H](O[C@@H]2O[C@H](C)C[C@H](N(C)C)[C@H]2O)[C@](C)(OC)C[C@@H](C)C(=O)[C@H](C)[C@@H](O)[C@]1(C)O [CLARITHROMYCIN] | 0.25 (≈ 0.334 µM) | 0.3 (≈ 0.401 µM) | 2 (≈ 2.67 µM) | 0.15 (≈ 0.201 µM) | 0.07 (≈ 0.0936 µM) |  |  |  |
| CC[C@H]1OC(=O)[C@H](C)[C@@H](O[C@H]2C[C@@](C)(OC)[C@@H](O)[C@H](C)O2)[C@H](C)[C@@H](O[C@@H]2O[C@H](C)C[C@H](N(C)C)[C@H]2O)[C@](C)(O)C[C@@H](C)C(=O)[C@H](C)[C@@H](O)[C@]1(C)O [ERYTHROMYCIN] | 16 (≈ 21.8 µM) | 4 (≈ 5.45 µM) | 128 (≈ 174 µM) |  |  |  |  |  |
| CC[C@@H](CO)NCCN[C@@H](CC)CO [ETHAMBUTOL] | 2 (≈ 9.79 µM) |  |  | 2.5 (≈ 12.2 µM) | 2.5 (≈ 12.2 µM) | 2 (≈ 9.79 µM) |  |  |
| CCc1cc(C(N)=S)ccn1 [ETHIONAMIDE] | 4 (≈ 24.1 µM) |  |  |  |  |  |  |  |
| NNC(=O)c1ccncc1 [ISONIAZID] | 0.125 (≈ 0.911 µM) | 0.1 (≈ 0.729 µM) |  |  | 0.4 (≈ 2.92 µM) | 0.06 (≈ 0.438 µM) |  |  |
| NC[C@H]1O[C@H](O[C@H]2[C@H](O)[C@@H](O[C@H]3O[C@H](CO)[C@@H](O)[C@H](N)[C@H]3O)[C@H](N)C[C@@H]2N)[C@H](O)[C@@H](O)[C@@H]1O [KANAMYCIN] | 1 (≈ 2.06 µM) |  |  |  |  |  |  |  |
| CC1COc2c(N3CCN(C)CC3)c(F)cc3c(=O)c(C(=O)O)cn1c23 (stereo unspecified) [OFLOXACIN] | < 0.031 | 0.75 (≈ 2.08 µM) |  |  | 0.75 (≈ 2.08 µM) |  | 1 (≈ 2.77 µM) |  |
| NC(=O)c1cnccn1 [PYRAZINAMIDE] |  |  |  |  |  |  |  | > 800 |
| CO[C@H]1/C=C/O[C@@]2(C)Oc3c(C)c(O)c4c(c3C2=O)C2=NC3(CCN(CC(C)C)CC3)NC2=C(NC(=O)/C(C)=C\C=C\[C@H](C)[C@H](O)[C@@H](C)[C@@H](O)[C@@H](C)[C@H](OC(C)=O)[C@@H]1C)C4=O [RIFABUTIN] | 0.063 (≈ 0.0744 µM) | 0.063 (≈ 0.0744 µM) |  | 0.016 (≈ 0.0189 µM) | 0.016 (≈ 0.0189 µM) | 0.063 (≈ 0.0744 µM) |  |  |
| CO[C@H]1/C=C/O[C@@]2(C)Oc3c(C)c(O)c4c(O)c(c(/C=N/N5CCN(C)CC5)c(O)c4c3C2=O)NC(=O)/C(C)=C\C=C\[C@H](C)[C@H](O)[C@@H](C)[C@@H](O)[C@@H](C)[C@H](OC(C)=O)[C@@H]1C [RIFAMPIN] | < 0.031 | 0.063 (≈ 0.0766 µM) |  | 0.031 (≈ 0.0377 µM) | 0.016 (≈ 0.0194 µM) | 0.063 (≈ 0.0766 µM) |  |  |
| CN[C@@H]1[C@H](O[C@H]2[C@H](O[C@H]3[C@H](O)[C@@H](O)[C@H](N=C(N)N)[C@@H](O)[C@@H]3N=C(N)N)O[C@@H](C)[C@]2(O)C=O)O[C@@H](CO)[C@H](O)[C@H]1O [STREPTOMYCIN] | 0.25 (≈ 0.43 µM) |  |  | 2 (≈ 3.44 µM) | 2 (≈ 3.44 µM) | 0.25 (≈ 0.43 µM) |  |  |
